Results as given in BindingDB's records for patent US20230295119 (Gossamer Bio Services, 2023).

Columns and labels:
[1] = target: T1, Tyrosine-protein kinase JAK3 (Homo sapiens, UniProt P52333); assay: JAK1, JAK2, and JAK3 Activity
T1 sequence (P52333 whole entry): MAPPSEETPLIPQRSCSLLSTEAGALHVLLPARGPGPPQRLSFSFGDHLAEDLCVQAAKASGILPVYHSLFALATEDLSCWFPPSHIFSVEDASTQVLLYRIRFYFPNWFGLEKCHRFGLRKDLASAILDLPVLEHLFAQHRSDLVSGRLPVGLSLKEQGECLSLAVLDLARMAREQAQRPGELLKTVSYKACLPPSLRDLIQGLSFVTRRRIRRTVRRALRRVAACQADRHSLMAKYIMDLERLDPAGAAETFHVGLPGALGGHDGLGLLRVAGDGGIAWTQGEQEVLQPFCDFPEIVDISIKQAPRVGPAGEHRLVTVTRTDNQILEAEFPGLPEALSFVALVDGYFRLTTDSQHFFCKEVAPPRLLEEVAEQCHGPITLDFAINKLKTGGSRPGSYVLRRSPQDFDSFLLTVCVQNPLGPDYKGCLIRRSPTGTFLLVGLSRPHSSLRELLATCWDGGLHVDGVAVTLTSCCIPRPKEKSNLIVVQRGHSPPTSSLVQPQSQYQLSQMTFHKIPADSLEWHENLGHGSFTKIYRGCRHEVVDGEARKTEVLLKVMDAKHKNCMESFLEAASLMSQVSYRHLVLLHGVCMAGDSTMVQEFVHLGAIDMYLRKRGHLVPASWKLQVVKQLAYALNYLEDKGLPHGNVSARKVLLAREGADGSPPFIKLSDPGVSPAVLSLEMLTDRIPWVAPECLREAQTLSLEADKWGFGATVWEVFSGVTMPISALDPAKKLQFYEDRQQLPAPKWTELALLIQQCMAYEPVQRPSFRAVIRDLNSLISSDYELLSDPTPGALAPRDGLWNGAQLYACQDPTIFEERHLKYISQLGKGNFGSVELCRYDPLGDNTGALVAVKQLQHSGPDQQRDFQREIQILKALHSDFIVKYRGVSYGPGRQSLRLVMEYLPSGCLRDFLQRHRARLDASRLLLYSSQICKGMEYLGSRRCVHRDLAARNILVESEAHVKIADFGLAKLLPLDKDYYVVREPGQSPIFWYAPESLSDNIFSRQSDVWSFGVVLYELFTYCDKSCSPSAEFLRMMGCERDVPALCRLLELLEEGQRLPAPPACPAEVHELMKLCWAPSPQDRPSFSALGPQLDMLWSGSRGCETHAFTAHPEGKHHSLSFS
Method: (§1) Compounds described herein were tested for the ability to inhibit activity of human JAK1, JAK2 and JAK3, which was achieved using TR-FRET assays. Briefly, the Kinases JAK1 (2.5 nM), JAK2 (0.025 nM) and JAK3 (0.0125 nM) were incubated with a series of concentrations of the test compound in the presence of […] (biotin-ahx- […]-CONH2), 2 nM Eu-labeled anti-pTYRPY20 and 80 nM Streptavidin APC. After 30 min incubation at RT, ATP ([…] respectively for JAK1, JAK2 and JAK3) was added to start the reaction, and incubated for 80 min at RT. The reaction was stopped by adding detection buffer and incubated for a further 60 min at RT. The samples were analyzed using Envision to calculate % inhibition at each of the series of concentrations of the test compound. The IC50 value of the compounds for each of the kinases were calculated using XLFit software.

[2] = target: Tyrosine-protein kinase JAK1 (Homo sapiens, UniProt P23458); assay: JAK1, JAK2, and JAK3 Activity
Sequence of Tyrosine-protein kinase JAK1 (P23458 whole entry): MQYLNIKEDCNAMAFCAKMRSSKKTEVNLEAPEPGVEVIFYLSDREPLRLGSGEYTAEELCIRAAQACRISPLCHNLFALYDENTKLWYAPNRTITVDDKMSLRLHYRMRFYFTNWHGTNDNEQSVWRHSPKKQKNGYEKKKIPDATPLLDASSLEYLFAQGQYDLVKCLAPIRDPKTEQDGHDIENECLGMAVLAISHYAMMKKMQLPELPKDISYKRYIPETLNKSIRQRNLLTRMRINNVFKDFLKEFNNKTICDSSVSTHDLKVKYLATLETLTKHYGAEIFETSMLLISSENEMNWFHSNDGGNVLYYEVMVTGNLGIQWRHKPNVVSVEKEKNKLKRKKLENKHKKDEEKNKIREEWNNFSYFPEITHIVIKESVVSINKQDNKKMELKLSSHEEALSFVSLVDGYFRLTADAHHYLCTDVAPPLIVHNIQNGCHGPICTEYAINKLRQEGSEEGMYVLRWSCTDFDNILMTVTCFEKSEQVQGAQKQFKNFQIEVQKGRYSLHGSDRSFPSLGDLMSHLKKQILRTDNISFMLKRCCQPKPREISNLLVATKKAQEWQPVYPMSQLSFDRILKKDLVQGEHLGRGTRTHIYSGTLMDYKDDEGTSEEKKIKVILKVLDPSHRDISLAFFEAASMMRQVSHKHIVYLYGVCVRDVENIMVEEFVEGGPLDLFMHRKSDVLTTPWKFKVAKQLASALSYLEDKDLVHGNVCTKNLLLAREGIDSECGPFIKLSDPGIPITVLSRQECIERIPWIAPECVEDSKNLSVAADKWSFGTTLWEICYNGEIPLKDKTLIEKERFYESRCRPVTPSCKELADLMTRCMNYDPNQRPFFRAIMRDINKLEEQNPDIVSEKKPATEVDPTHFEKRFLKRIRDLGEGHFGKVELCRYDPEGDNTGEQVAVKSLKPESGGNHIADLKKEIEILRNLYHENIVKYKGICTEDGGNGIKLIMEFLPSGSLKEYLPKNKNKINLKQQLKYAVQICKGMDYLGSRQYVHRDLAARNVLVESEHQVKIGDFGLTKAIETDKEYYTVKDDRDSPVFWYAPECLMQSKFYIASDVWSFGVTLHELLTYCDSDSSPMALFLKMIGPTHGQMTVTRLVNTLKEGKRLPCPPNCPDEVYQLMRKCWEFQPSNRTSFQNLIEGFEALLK
Method: as §1

[3] = JAK1, JAK2, and JAK3 Activity
[4] = target: Tyrosine-protein kinase JAK2 (Homo sapiens, UniProt O60674); assay: JAK1, JAK2, and JAK3 Activity
Sequence of Tyrosine-protein kinase JAK2 (O60674 whole entry): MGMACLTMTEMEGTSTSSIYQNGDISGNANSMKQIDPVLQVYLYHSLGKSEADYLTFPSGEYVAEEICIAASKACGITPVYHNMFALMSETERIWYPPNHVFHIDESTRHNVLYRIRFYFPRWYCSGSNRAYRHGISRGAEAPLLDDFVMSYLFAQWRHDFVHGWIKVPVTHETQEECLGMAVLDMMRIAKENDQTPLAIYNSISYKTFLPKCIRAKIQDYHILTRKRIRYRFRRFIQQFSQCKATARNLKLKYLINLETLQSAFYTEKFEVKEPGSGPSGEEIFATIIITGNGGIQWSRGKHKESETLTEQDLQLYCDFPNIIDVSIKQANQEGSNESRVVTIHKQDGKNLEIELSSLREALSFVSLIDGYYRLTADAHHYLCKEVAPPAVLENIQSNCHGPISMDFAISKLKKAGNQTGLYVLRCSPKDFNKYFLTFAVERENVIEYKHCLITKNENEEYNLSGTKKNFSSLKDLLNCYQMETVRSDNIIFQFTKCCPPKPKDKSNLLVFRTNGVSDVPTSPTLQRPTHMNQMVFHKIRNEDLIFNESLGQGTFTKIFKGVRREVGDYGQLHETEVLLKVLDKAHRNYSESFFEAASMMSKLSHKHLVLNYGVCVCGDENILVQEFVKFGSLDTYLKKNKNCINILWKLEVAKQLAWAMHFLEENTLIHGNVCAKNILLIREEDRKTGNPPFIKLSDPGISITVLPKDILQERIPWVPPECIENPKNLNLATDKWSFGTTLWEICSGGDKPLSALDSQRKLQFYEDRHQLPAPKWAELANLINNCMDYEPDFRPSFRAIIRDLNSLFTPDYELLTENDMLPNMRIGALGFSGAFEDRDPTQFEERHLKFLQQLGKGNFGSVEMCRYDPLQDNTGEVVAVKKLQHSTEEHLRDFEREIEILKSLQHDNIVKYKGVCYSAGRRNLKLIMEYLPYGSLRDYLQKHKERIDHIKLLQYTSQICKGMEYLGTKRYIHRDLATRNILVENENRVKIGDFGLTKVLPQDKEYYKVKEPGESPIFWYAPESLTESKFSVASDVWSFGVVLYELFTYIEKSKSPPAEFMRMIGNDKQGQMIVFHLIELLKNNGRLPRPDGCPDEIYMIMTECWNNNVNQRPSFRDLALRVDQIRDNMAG
Method: as §1

| SMILES | IC50 [1] | IC50 [2] | IC50 [3] | IC50 [4] |
| --- | --- | --- | --- | --- |
| CCC(=O)c1cnc(Nc2ccc(CN3CCN(C)CC3)nn2)cc1Nc1cccc(-c2ncn(C)n2)c1OC [US20230295119, Compound 9PPP] | > 500 nM | > 500 nM |  |  |
| CCC(=O)c1cnc(Nc2cc(C(C)NC)ncn2)cc1Nc1cccc(-c2ncn(C)n2)c1OC (configuration not stated) [US20230295119, Compound 9PPPP] | > 500 nM | > 500 nM | < 5 nM |  |
| CCC(=O)c1cnc(Nc2cnc(OCCN3CCN(C)CC3)cn2)cc1Nc1cccc(-c2ncn(C)n2)c1OC [US20230295119, Compound 18FFF] | > 500 nM | > 500 nM | < 5 nM | > 500 nM |
| CCC(=O)c1cnc(Nc2cnc(O[C@@H]3CCN(CC)C3)cn2)cc1Nc1cccc(-c2ncn(C)n2)c1OC [US20230295119, Compound 18DDD] | > 500 nM | > 500 nM |  | > 500 nM |
